# ChEMBL document CHEMBL2007661, “Compounds: GSK PKIS; Assays: UNC Frye lab” (2012)
# Several values for one entry are separate records, joined by “and”; a condition that tells them apart may be missing. Equal entries are not always repeated.
# Legend:
# [1] = target: T1, Inhibitor of nuclear factor kappa-B kinase subunit alpha (Homo sapiens) (UniProt O15111); settings: at 1 µM
# T1 sequence (whole entry): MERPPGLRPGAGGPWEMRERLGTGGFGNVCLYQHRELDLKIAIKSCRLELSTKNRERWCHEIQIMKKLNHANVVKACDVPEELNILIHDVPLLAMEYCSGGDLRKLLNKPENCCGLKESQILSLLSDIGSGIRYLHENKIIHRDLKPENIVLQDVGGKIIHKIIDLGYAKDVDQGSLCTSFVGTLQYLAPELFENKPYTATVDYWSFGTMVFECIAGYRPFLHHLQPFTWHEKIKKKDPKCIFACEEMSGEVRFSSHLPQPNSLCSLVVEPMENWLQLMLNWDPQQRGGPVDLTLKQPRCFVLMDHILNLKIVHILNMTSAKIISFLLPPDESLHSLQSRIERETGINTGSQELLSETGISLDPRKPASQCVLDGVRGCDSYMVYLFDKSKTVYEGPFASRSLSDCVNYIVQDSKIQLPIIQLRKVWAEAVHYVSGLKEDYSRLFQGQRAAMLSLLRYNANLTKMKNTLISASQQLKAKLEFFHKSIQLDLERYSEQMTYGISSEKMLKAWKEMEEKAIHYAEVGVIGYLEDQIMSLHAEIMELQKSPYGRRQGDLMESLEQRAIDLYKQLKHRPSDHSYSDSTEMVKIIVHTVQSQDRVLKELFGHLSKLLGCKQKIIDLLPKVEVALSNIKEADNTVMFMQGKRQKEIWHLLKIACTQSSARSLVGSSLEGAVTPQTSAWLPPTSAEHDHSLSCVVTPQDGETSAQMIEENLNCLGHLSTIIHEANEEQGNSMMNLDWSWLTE
# [2] = target: T2, Tyrosine-protein kinase Mer (Homo sapiens) (UniProt Q12866); settings: at 10 µM
# T2 sequence (whole entry): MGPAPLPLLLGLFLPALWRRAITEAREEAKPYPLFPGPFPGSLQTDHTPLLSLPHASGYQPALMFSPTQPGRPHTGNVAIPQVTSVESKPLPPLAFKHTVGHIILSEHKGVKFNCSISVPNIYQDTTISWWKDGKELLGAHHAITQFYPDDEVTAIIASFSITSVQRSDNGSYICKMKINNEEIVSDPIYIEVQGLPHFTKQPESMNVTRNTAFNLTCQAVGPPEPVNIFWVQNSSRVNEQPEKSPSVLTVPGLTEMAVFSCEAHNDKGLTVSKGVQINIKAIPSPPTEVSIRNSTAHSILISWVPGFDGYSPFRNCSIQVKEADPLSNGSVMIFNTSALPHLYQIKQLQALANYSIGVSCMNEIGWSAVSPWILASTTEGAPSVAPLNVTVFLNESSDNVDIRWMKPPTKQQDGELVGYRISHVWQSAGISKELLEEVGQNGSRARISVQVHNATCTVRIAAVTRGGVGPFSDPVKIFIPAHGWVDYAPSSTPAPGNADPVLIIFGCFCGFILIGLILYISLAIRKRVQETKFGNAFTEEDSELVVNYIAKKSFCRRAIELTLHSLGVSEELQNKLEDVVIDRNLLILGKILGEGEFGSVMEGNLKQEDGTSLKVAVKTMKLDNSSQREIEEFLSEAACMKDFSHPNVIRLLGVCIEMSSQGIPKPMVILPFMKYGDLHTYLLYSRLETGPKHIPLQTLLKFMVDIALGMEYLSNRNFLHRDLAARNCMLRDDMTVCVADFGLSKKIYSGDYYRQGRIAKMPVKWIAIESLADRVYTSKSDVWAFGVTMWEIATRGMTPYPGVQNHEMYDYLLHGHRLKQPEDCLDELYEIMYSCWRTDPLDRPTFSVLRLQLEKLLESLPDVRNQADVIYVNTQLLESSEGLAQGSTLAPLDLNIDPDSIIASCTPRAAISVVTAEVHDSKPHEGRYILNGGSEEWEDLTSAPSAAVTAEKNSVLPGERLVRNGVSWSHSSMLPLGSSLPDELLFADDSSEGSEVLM
# [3] = target: T3, Serine/threonine-protein kinase TBK1 (Homo sapiens) (UniProt Q9UHD2); settings: at 1 µM
# T3 sequence (whole entry): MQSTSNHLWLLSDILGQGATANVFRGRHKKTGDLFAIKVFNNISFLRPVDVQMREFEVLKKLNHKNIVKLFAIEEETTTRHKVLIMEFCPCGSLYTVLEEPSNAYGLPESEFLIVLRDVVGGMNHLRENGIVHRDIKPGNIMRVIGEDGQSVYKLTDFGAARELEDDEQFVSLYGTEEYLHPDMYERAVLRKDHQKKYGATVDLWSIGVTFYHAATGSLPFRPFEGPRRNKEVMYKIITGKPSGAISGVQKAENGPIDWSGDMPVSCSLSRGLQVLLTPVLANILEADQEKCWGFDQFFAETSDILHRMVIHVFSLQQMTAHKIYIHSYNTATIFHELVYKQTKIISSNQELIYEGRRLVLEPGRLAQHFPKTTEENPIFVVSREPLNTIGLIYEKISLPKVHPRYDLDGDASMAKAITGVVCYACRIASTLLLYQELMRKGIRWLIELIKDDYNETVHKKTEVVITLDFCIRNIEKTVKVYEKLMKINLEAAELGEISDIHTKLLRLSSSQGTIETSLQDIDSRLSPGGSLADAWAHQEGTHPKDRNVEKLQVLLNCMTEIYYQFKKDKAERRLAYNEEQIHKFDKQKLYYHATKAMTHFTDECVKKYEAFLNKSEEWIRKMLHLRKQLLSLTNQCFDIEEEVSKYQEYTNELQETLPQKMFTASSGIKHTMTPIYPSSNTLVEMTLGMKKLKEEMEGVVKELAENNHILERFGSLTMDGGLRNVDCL
inhibition [1],inhibition [2],inhibition [3],Compound
-7% and 2%,-2%,1%,CCS(=O)(=O)c1ccc(OC)c(Nc2nccc(N(C)c3ccc4c(C)n[nH]c4c3)n2)c1
2%,85%,74% and 76%,COc1cccc(-c2c[nH]c3c(N/N=C/c4ccncc4)ncnc23)c1
0% and -2%,-3%,29% and 33%,c1cnn2ncc(-c3ccnc(Nc4ccc5c(c4)OCCO5)n3)c2c1
-4% and -5%,-5%,-2% and -3%,COc1ccc2cc(-c3c(-c4ccncc4)nc(-c4ccc([S+](C)[O-])cc4C)n3C)ccc2c1 (stereo not drawn)
-2% and 1%,68%,46% and 45%,CC(C)=Cc1cccc2c1/C(=N/Nc1ccc(S(N)(=O)=O)cc1)C(=O)N2
18% and 19%,-4%,65% and 66%,CCn1c(-c2nonc2N)nc2c(C#CC(C)(C)O)ncc(OC[C@@H]3CCCN3)c21
-2%,-1%,1% and -2%,CCC(=O)Nc1ccc(C)c(-c2ccc(C(=O)NCC3CC3)cc2)c1
-10%,8%,-3% and -1%,CCc1cccc(NC(=O)Nc2ccc(Oc3ccc4nc(NC(=O)OC)[nH]c4c3)cc2)c1
-2% and 0%,6%,-3% and -5%,Fc1ccc(-c2ncn(C3CCNCC3)c2-c2ccnc(Oc3ccc4c(c3)OCO4)n2)cc1
15%,-6%,17% and 18%,Cn1cc(C=C2C(=O)Nc3cccnc32)c2ccccc21
-1% and 0%,2%,-4% and -2%,NS(=O)(=O)c1ccc(Nc2cc(-c3cccc(O)c3)n[nH]2)cc1
2%,-7%,0% and 2%,CN1CCC(n2cnc(-c3ccc(F)cc3)c2-c2ccnc(N)n2)CC1
-4% and -2%,86%,5% and 3%,Cc1cc(-c2ccco2)cc(C)c1/C=C/c1cncc(-c2nn[nH]n2)c1
2%,-9%,1% and 2%,Cc1c2ccc(N(C)c3ccnc(Nc4cccc(S(N)(=O)=O)c4)n3)cc2nn1C
9% and 7%,-8%,-2% and -3%,Cc1ccc(C(=O)NC2CCCCC2)cc1-c1ccc(C(=O)NCC2CC2)cc1
4% and 0%,2%,29% and 20%,CS(=O)(=O)Nc1ccc(N/C=C2\C(=O)Nc3ccccc32)cc1
0% and 1%,-2%,4% and 1%,Nc1nc(-c2ccc(F)cc2)c(-c2ccc3ncccc3n2)s1
35% and 28%,6%,32% and 36%,CCn1c(-c2nonc2N)nc2cncc(C(=O)N3CC[C@H](N)C3)c21
1%,66%,11% and 12%,CS(=O)(=O)CCN(CC#N)Cc1ccc(-c2ccc3ncnc(Nc4ccc(OCc5cccc(F)c5)c(Cl)c4)c3c2)o1
3% and 1%,5%,2% and 1%,CNC(=O)c1cncc(/C=C/c2ccccc2Cl)c1
1% and 0%,-10%,-5% and -7%,CC(C)c1ccc(-c2cc(-c3c[nH]nc3-c3ccccn3)ccn2)cc1
0% and 1%,21%,-1%,Fc1ccc(-c2ncn(CCCN3CCOCC3)c2-c2ccncc2)cc1
0% and 11%,47%,-2% and -5%,CC1=C(C(=O)Nc2ccc3[nH]ncc3c2)C(c2ccc3ccccc3c2)CC(=O)N1 (stereo not drawn)
4% and 2%,10%,28% and 24%,CCCN1CCC=C(c2ccc(Nc3nc(Nc4ccccc4C(N)=O)c4cc[nH]c4n3)c(C)c2)C1
1% and 6%,9%,0%,CCN1CCC(CC(=O)Nc2n[nH]c3nnc(-c4cccc(F)c4F)cc23)CC1
6% and 4%,-2%,2% and 1%,Cc1ccc(O)cc1Nc1ccnc2cc(-c3ccccn3)ccc12
